Columns and labels:
[1] = test system: d(5′‐CGCGAATTCGCG‐3′)2 (DNA, duplex) CGCGAATTCGCG; experiment: ethidium bromide displacement fluorescence quenching, double-log plot; settings: 100 mM phosphate (cation not given); pH 7.0, 298 K; 20 μM DNA, 5.2 μM ethidium bromide displaced; apparent
[2] = test system: d(5′‐CGCGAATTCGCG‐3′)2 (DNA, duplex) CGCGAATTCGCG; experiment: 1H NMR titration; settings: 100 mM phosphate (cation not given), H2O:D2O 9:1, pH 7.0, 298 K, r = 0.5-2
[3] = test system: A2780; experiment: Cell growth assay (IncuCyte Zoom), cytotoxicity; type: cell-based, human
Protocol: (§1) The human breast adenocarcinoma cell line MCF-7 and the mouse embryonic fibroblast cell line NIH-3T3 were cultured in high- glucose Dulbecco’s modified Eagle’s medium (DMEM) supplemented with 10% fetal bovine serum and 1% penicillin/ streptomycin. The human ovarian cancer cell line A2780 and its cisplatin resistant derivative (A2780cis-res) were maintained in RPMI-1640 medium supplemented with 10% fetal bovine serum and 1% penicillin/streptomycin. All cell lines were routinely passaged every 2 – 3 days, and incubated at 37 °C in a humidified atmosphere containing 5% CO2.
(§2) Cell growth and the cytotoxic effects of the complexes were monitored using the IncuCyte Zoom system and software(Essen BioScience, Hertfordshire, United Kingdom), as previously described^84. The IC50 values of cisplatin and of the complexes were determined by fitting a log(concentration) versus normalized response curve using GraphPad Prism, version 8.01.

[4] = test system: A2780cis‐res; experiment: Cell growth assay (IncuCyte Zoom), cytotoxicity; type: cell-based, human
Protocol: as §1, §2

[5] = test system: MCF‐7; experiment: Cell growth assay (IncuCyte Zoom), cytotoxicity; type: cell-based, human
Protocol: as §1, §2

[6] = test system: NIH-3T3; experiment: Cell growth assay (IncuCyte Zoom), cytotoxicity to normal fibroblasts; type: cell-based, mouse; settings: NIHT‐3T3 normal fibroblasts
Protocol: as §1, §2

SMILES: Cc1ccc(C(C)C)cc1.Cc1ccc(C(C)C)cc1.[Ru+2].[Ru+2].[c-]1cccc2ccc3cccnc3c12.[c-]1cccc2ccc3cccnc3c12.c1cc(-c2ccncc2)ccn1
- K b [1]: 807.6 ± 19.9 × 10^3 M^-1

SMILES: Cc1ccc(C(C)C)cc1.Cc1ccc(C(C)C)cc1.[Ru+2].[Ru+2].[c-]1cccc2ccc3cccnc3c12.[c-]1cccc2ccc3cccnc3c12.c1cc(CCCc2ccncc2)ccn1
- K b [1]: 602.8 ± 76.1 × 10^3 M^-1

SMILES: Cc1ccc(C(C)C)cc1.Cc1ccc(C(C)C)cc1.[Ru+2].[Ru+2].[c-]1cccc2ccc3cccnc3c12.[c-]1cccc2ccc3cccnc3c12.c1cc(CCc2ccncc2)ccn1
- K b [1]: 298.4 ± 4.3 × 10^3 M^-1

SMILES: Cc1ccc(C(C)C)cc1.Cc1ccc(C(C)C)cc1.[Ru+2].[Ru+2].[c-]1cccc2ccc3cccnc3c12.c1cc(-c2ccncc2)ccn1.c1cnc2c(c1)ccc1cccnc12
- binding ([2]; minor-groove intercalation): yes
- K b [1]: 5.59 ± 0.21 × 10^3 M^-1

SMILES: Cc1ccc(C(C)C)cc1.Cc1ccc(C(C)C)cc1.[Ru+2].[Ru+2].[c-]1cccc2ccc3cccnc3c12.c1cc(CCCc2ccncc2)ccn1.c1cnc2c(c1)ccc1cccnc12
- binding ([2]; groove binding): yes
- K b [1]: 6.70 ± 0.58 × 10^3 M^-1

SMILES: Cc1ccc(C(C)C)cc1.Cc1ccc(C(C)C)cc1.[Ru+2].[Ru+2].[c-]1cccc2ccc3cccnc3c12.c1cc(CCc2ccncc2)ccn1.c1cnc2c(c1)ccc1cccnc12
- binding ([2]; groove binding at duplex ends): yes
- K b [1]: 28.51 ± 0.97 × 10^3 M^-1

SMILES: N.N.[Cl][Pt][Cl] [cisplatin, reference compound]
- Selectivity index IC50(NIHT‐3T3)/IC50(A2780) [3]: 0.2
- IC50 ([3]; A2780 cells): 2.54 ± 0.11 µM
- Resistant factor IC50 (A2780cisR)/IC50(A2780) [4]: 7.3
- IC50 ([4]; A2780cis‐res cells): 18.4 ± 1.59 µM
- Selectivity index IC50(NIHT‐3T3)/IC50(A2780cis‐res) ([4]; third of three values in the cell): 0.2
- IC50 ([5]; MCF‐7 cells): 14.6 ± 1.25 µM
- Selectivity index IC50(NIHT‐3T3)/IC50(MCF‐7) ([5]; first of three values in the cell): 1.2
- IC50 [6]: 3.02 ± 0.36 µM

From article PMC12734683 (Chemistry (Weinheim an Der Bergstrasse, Germany), 2025)
